Holding throughout (assay): Screening in cancer cell strains, cell survival rate with PrestoBlue
Type in all cases: cell-based

Series [1] concerns large intestine cancer cell strain HCT116 (p53 deletion). As to conditions: Day 5 after transfection with RNAiMAX, compared with miR-34a-5p. Here is the method:
(§1) The 349 types of aging induction miRNA (mirVana; Ambion) obtained from screening were transfected into various cancer cell strains (large intestine cancer cell strain HCT116 (p53 wildtype and p53 deletion), pancreatic cancer cell strains BxPC-3 and CFPAC-1, and tongue cancer cell strain HSC-4) with an auto dispenser Bravo (Agilent).
(§2) Transfection was carried out with the following protocol.
(§3) 1: To 70 μL of serum free medium (SFM) was added 0.35 μL of RNAiMAX (Invitrogen).
(§4) 2: The solution from 1 was added to a 96-well plate (μ-plate; ibidi) with Bravo.
(§5) 3: To 2 was added 0.7 μL of miRNA (Stock Conc. 200 nM) with Bravo, and this was mixed by pipetting.
(§6) 4: This was incubated at room temperature for 20 minutes.
(§7) 5: A cell suspension diluted to 3.5×10^4 cells/mL was dispensed at 70 μL each with Bravo.
(§8) 6: This was incubated at 37° C. under 5% CO2 condition.
(§9) Setting the day of transfection as Day 0, on Day 5 the cell survival rate was evaluated with PrestoBlue (Invitrogen). The operating protocol is shown below.
(§10) 1. The medium was exchanged to a medium comprising PrestoBlue diluted 20-folds, and this was incubated at 37° C. for 1 hour. 2. The fluorescence value (Ex/Em=560 nm/590 nm) was measured with Enspire (Perkin Elmer).
(§11) 3. The cell survival rate was determined by setting the fluorescence value obtained from the well with only the reagent as the background.

The subject of series [2] is large intestine cancer cell strain HCT116 (p53 wildtype). As to conditions: Day 5 after transfection with RNAiMAX, compared with miR-34a-5p. The method, then: as §1, §2, §3, §4, §5, §6, §7, §8, §9, §10, §11
Series [3] concerns pancreatic cancer cell strain BxPC-3. As to conditions: BxPC-3, Day 5 after transfection with RNAiMAX, compared with miR-34a-5p. Here is the method:
as §1, §2, §3, §4, §5, §6, §7, §8, §9, §10, §11

For series [4], the system named is pancreatic cancer cell strain CFPAC-1. As to conditions: CFPAC-1, Day 5 after transfection with RNAiMAX, compared with miR-34a-5p. The method, then:
as §1, §2, §3, §4, §5, §6, §7, §8, §9, §10, §11

Series [5] relates to tongue cancer cell strain HSC-4. As to conditions: HSC-4, Day 5 after transfection with RNAiMAX, compared with miR-34a-5p. The method, then:
as §1, §2, §3, §4, §5, §6, §7, §8, §9, §10, §11

Turning to “miR-137-3p: Mature-miRNA, UUAUUGCUUAAGAAUACGCGUAG (SEQ ID NO. 5) (listed as RNA, chemistry not given here; listed as Homo sapiens)”, the “suppression of cell proliferation (cell survival rate, PrestoBlue)” value (shortened to “suppression of cell proliferation”) in series [1], in series [2], in series [3], in series [4] and in series [5] was “suppress cell proliferation more significantly than miR-34-5p” in each case.

For the substance “miR-631-5p: Mature-miRNA, AGACCUGGCCCAGACCUCAGC (SEQ ID NO. 8) (listed as RNA, chemistry not given here; listed as Homo sapiens)”, the “suppression of cell proliferation” value in series [1], in series [2], in series [3], in series [4] and in series [5] was “suppress cell proliferation more significantly than miR-34-5p” each time.

In the case of “miR-657-3p: Mature-miRNA, GGCAGGUUCUCACCCUCUCUAGG (SEQ ID NO. 11) (listed as RNA, chemistry not given here; listed as Homo sapiens)”, the “suppression of cell proliferation” value in series [1], in series [2], in series [3], in series [4] and in series [5] was “suppress cell proliferation more significantly than miR-34-5p” each time.

These data come from patent US11311568B2, “Therapeutic pharmaceutical composition for cancer including miRNA” (Purmx Therapeutics, Inc., priority 2017, dated 2022).
